In PMC2794939 (Biochemistry, 2009):

What was measured:
A/M2 wt channel [1] = target: T1, A/M2 wt channel (Influenza A virus, UniProt P0DOF5); assay type: cell-based
[2] = system: wt influenza virus (A/Udorn/72); assay type: cell-based
[3] = target: T2, transmembrane domain of wt A/M2 protein (M2TM, residues 22–46) (Influenza A virus, UniProt P0DOF5); assay type: binding; conditions: pH 7.4
T2 sequence (P0DOF5 22-46 limits assumed): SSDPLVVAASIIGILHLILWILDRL

A/M2 wt channel [4] = target: T1, A/M2 wt channel; conditions: cited from earlier work

T1 sequence (P0DOF5 whole entry): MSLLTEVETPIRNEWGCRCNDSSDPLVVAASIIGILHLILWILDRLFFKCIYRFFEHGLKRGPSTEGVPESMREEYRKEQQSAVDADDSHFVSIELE

SMILES	voltage dependence of inhibition (A/M2 wt channel [1])	reversibility of inhibition / washout rate (A/M2 wt channel [1]; pH 8.5)	concentrations at which plaque formation was inhibited [2]	% remaining activity after application of 100 μM compound (A/M2 wt channel [1])	IC50 (A/M2 wt channel [1]; pH 5.5)	activity (A/M2 wt channel [1]; read-out: AM2 channel activity after 100μM compound inhibition)	Kd [3]	dissociation rate constant (κoff) (A/M2 wt channel [4])	second-order rate constant (κon) for association and inhibition (A/M2 wt channel [4])	reversal of inhibition in the time frame of 5 min (A/M2 wt channel [1]; pH 8.5)
NC1CCC2(CCCCC2)CC1 [Compound 8, spiro[5.5]undecan-3-amine]	voltage-independence	not significantly different from that of amantadine								
C1CCC2(CC1)CCN(C1=NCCN1)CC2 [BL-1743, 2-[3-azaspiro([5],[5])undecanol]-2-imidazoline]	voltage-independence	essentially fully reversible	50 to 100 µM	25.3±1.3%	45.3 ± 3.92 µM	25%	194 µM	10^−3 s^−1	720 M⁻¹ s⁻¹	
NC12CC3CC(CC(C3)C1)C2 [Amantadine, amantadine]	voltage-independence							10^−4 s^−1		about 10%
